Among the data in PubChem BioAssay (NCI) are TGI and GI50 values, retold here.

The structures appear in SMILES notation. Values joined by “and” are separate entries in the source; they are usually repeats but may differ in a detail not shown here. Equal values may be shown once.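 Dose response: 5 concentrations. Exposure: 48 h. Format: 96-well plates. Endpoint: linear interpolation; highest concentration if not reached. GI50 marks 50% less growth. TGI is the concentration that stops growth completely.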 Some results are limits rather than exact numbers.

Some test systems named below: SW-620 colon; K-562 leukemia; SF-295 CNS; HCT-116 colon; DMS 114 small cell lung; MCF7 breast; KM20L2 colon; DLD-1 colon; OVCAR-3 ovarian; BT-549 breast; NCI/ADR-RES ovarian; DMS 273 small cell lung.
Common to all, as to assay: NCI-60 cell line screen, 48 h

As to `O=S1(=O)CCN(c2ccccc2CC(c2c[nH]c3ccccc23)c2c[nH]c3ccccc23)CC1`, the TGI with SW-620 colon was 21.1 µM; with K-562 leukemia, 45.1 µM; in the assay on SF-295 CNS, 49.9 µM; in the assay with HCT-116 colon it was 16.5 µM; with DMS 114 small cell lung, above 100 µM; with MCF7 breast, above 100 µM. Moreover, the TGI was 27.8 µM in the assay on KM20L2 colon; 21.4 µM with DLD-1 colon; 20.9 µM in the assay with OVCAR-3 ovarian; 37.3 µM in the assay with BT-549 breast; 38.7 µM in the assay on NCI/ADR-RES ovarian; 37.5 µM with DMS 273 small cell lung.

Consider `CC(C)(C)CC(C)(C)c1ccc(OCCOCC[N+](C)(C)Cc2ccccc2)cc1`, for which the TGI is 21 µM in the assay with SW-620 colon; 15.7 µM with K-562 leukemia; 28.4 µM in the assay with SF-295 CNS; 2.69 µM and 3.55 µM in the assay with HCT-116 colon; 4.02 µM in the assay on DMS 114 small cell lung; 18.8 µM in the assay on KM20L2 colon. For the same compound, the TGI in the assay on DLD-1 colon worked out at 20.3 µM; with OVCAR-3 ovarian, 6.8 µM; in the assay on NCI/ADR-RES ovarian it was 38.8 µM; with DMS 273 small cell lung, 2.57 µM. The GI50 is 1.38 µM in the assay on HCT-116 colon and 16.2 µM in the assay on NCI/ADR-RES ovarian.

In the case of `O=c1c2c(nc3n1CCC3)sc1c(O)c(Br)ccc12`, the TGI came out at 29.9 µM in the assay on SW-620 colon; 59.2 µM in the assay with K-562 leukemia; 35 µM in the assay on SF-295 CNS; 35.2 µM with HCT-116 colon; 32.4 µM in the assay with DMS 114 small cell lung; 35.9 µM in the assay on KM20L2 colon. Besides, the results for the TGI in the assay on DLD-1 colon, with OVCAR-3 ovarian and in the assay with DMS 273 small cell lung were above 100 µM, 36.7 µM and 31 µM, respectively.

As for `C/C(=C\Cc1cc(O)ccc1O)CCc1c(C)cc(O)c(C=O)c1C`, the TGI in the assay on SW-620 colon was above 100 µM; in the assay on K-562 leukemia, above 100 µM; with SF-295 CNS, 79 µM; in the assay on HCT-116 colon, 41 µM; with DMS 114 small cell lung it was 31.2 µM; with KM20L2 colon, above 100 µM. Further, the figures for the TGI with DLD-1 colon, in the assay with OVCAR-3 ovarian and with DMS 273 small cell lung were 55.1 µM, 53.1 µM and 55.4 µM, respectively.
